In patent US8999892B2, “Use of S-abscisic acid for improving fruit set and producing parthenocarpic fruits and as a growth inhibitor” (Globachem, priority 2004, dated 2015):

Legend:
Type in all cases: in vivo
[1] = system: apple trees, variety Jonagored; assay: Promoting fruit set in pome fruit, orchard spray trial 2003; details: 2 g/ha sprayed three weeks after full flower
Excerpt: Experimental period: 2003 Pome fruit crops treated: apple trees, variety Jonagored. The fruit orchard was sprayed on 9 May, that is, three weeks after full flower (18 April). S-ABA was applied in a dose of 2 g/ha. For the control experiment, the same formulation, but without S-ABA, was used. The number of fruit trees per plot was 10.

[2] = system: apple trees, variety Boskoop; assay: Promoting fruit set, production of parthenocarpic fruits and inhibition of growth in pome fruit, orchard spray trial 2004; details: for Number of apples/tree / Number of unclosed buds/tree (crown tip excluded): evaluation 6 Jul. 2004
Excerpt: Experimental period: 2004 Pome fruit crops treated: apple trees, variety Boskoop The fruit orchard was sprayed on 23 April, that is, during full flower. A further plot was spayed on 20 May 2004. S-ABA was applied in a dose of 2 g/ha. For the control experiment, the same formulation, but with-out S-ABA, was used. The number of fruit trees per plot was 40. The evaluation on 6 Jul. 2004 provided the following results: The buds or shoots in the crown tip of the trees were not taken into account because increased shoot growth frequently occurs in these places due to intensive cutting measures. In general, the growth of shoots in the crown tip is stronger than in the other regions of the tree crown.

[3] = system: cherry trees, variety Summit; assay: Improvement of fruit set in stone fruit, orchard spray trial 2004; details: 2 g/ha sprayed one week after flowering
Excerpt: Experimental period: 2004 Stone fruit crops treated: cherry trees, variety Summit The fruit orchard was sprayed with S-ABA one week after flowering; the dose was 2 g/ha. For the control experiment, the same formulation, but without S-ABA, was used. The number of fruit trees per plot was 5.

[4] = 2 g/ha sprayed 23 April (full flower)

Compound: CC(C=C[C@@]1(O)C(C)=CC(=O)CC1(C)C)=CC(=O)O (stereo in doubt) [S-ABA, (S)-5-(1-hydroxy-2,6,6-trimethyl-4-oxo-2-cyclohexenyl)-3-methyl-cis/trans-2,4-pentanedienoic acid]
- Apples in grade 75-85 mm [1]: 15.54 kg
- Apples in grade A2++ (75-85 mm) [1]: 9.62 kg
- Increase in number of apples per tree as compared to the control [1]: 17%
- Increase in yield (in kg) as compared to the control [1]: 8%
- Increase in yield in the high grades [1]: 84%
- Increase in yield of grade A2++ (optimal fruit color) [1]: near doubling of the yield
- Number of apples/tree [1]: 129
- Yield ([1]; 10 trees per plot): 33.37 kg/tree
- Number of apples/tree ([2]; 2 g/ha sprayed 20 May): 42
- Number of unclosed buds/tree (crown tip excluded) ([2]; 2 g/ha sprayed 20 May): 0
- Number of apples/tree [2, 4]: 35.4
- Number of unclosed buds/tree (crown tip excluded) [2, 4]: 1.66
- Increase in total number of apples per tree as compared with the control ([2]; plot treated 20 May): approximately 21%
- Closure of buds (inhibition of vegetative growth) ([2]; plots treated with S-ABA, independently of the time of treatment): almost all buds were closed
- Effect on fruit set of treatment during flowering ([2]; treatment during flowering (23 April)): not adversely affected
- Formation of parthenocarpic fruits ([2]; trees treated with 2 g/ha): parthenocarpic, pipless fruits were formed
- Formation of parthenocarpic fruits [3]: Parthenocarpic fruits were not observed
- Increase in number of fruits compared to the control plot [3]: near doubling of the number of fruits
- Weight per cherry [3]: not significantly influenced
- Yield ([3]; 5 trees per plot): 25 kg/tree
